The values below come from ChEMBL document CHEMBL1143887, “Novel amino linkers enabling efficient labeling and convenient purification of amino-modified oligonucleotides” (Bioorg Med Chem, 2008).

This data set is described as follows: Dissociation constant, pKa of the compound. It counts as physicochemical.

For orientation: pKa means the negative logarithm of the acid dissociation constant. A high value points to a weaker acid or stronger base. In the case of `NC[C@H](COCc1cccc2ccccc12)OC(=O)NCCCCCCO`, the pKa worked out at 8.9.
